“Also recorded” adds a separate entry of the source. Structures can show the parent of a compound that is named as a salt.
Assays:
[1] = human plasma maximum concentration; ref [1]–[19]; cited from earlier work
[2] = system: SUDV Boniface and MARV Ci67; format: cell-based, Sudan virus, Marburg virus
[3] = ref PubChem compound summaries; cited from earlier work
SUDV Boniface [4] = experiment: microbe, parasite or virus in culture; format: cell-based, Sudan virus; settings: for EC50: Sudan ebolavirus, HeLa, read-out: Activity against SUDV EC50
in vitro [5] = settings: human
MARV Ci67 [6] = experiment: organism not typed; format: cell-based, Marburg virus; settings: HeLa, read-out: Activity against MARV EC50
in vitro [7] = settings: human; remark: listed apart in the source
MARV Ci67 [8] = format: cell-based, Marburg virus
[9] = in vivo; cited from earlier work
SUDV Boniface [10] = format: cell-based, Sudan virus
West Niles virus (WNV) = settings: read-out: EC50 against West Niles virus (WNV); cited from earlier work
dengue virus-2 (DENV-2) = settings: read-out: EC50 against dengue virus-2 (DENV-2); cited from earlier work
yellow fever virus (YFV) = settings: read-out: EC50 against yellow fever virus (YFV); cited from earlier work
HCV 1b replicon = settings: read-out: EC50 against HCV 1b replicon (early studies); cited from earlier work

Row | SMILES | Cmax [1] | Drug-drug interaction? (RDV potency) [2] | effect on RDV potency in combination studies [2] | Plasma Protein Binding [3] | RDV CC50 when combination (HeLa cells; human) | RDV CC50 when in combination (HeLa cells; human) | other results
1 | CC(=O)Nc1ccc(O)cc1 [Acetaminophen] | 11400 [1] ng/mL | No | minimal effect on RDV potency | 10–25% | > 2.5 µM | > 2.5 µM | –
2 | CCN(CC)Cc1cc(Nc2ccnc3cc(Cl)ccc23)ccc1O [Amodiaquine, Amodiaquine hydrochloride dihydrate] | 32.3 [2] ng/mL | Enhanced^5 for SUDV | – | – | > 2.5 µM | > 2.5 µM | fold lowering of RDV EC50 against SUDV (SUDV Boniface [4]): > 5 folds
3 | CO[C@H]1O[C@@H]2O[C@@]3(C)CC[C@H]4[C@H](C)CC[C@@H]([C@H]1C)[C@@]24OO3 [Artemether] | 198 [3] ng/mL | No | minimal effect on RDV potency | 95.4% | > 2.5 µM | > 2.5 µM | –
4 | C[C@H]1[C@H](OC(=O)CCC(=O)O)O[C@@H]2O[C@@]3(C)CC[C@H]4[C@H](C)CC[C@@H]1[C@@]24OO3 [Artesunate] | 3260 [4] ng/mL | No | – | 93% | > 2.5 µM | – | –
5 | O=C1C(O)=C([C@H]2CC[C@H](c3ccc(Cl)cc3)CC2)C(=O)c2ccccc21 [Atovaquone] | 8300 [5, 6] ng/mL | No | minimal effect on RDV potency | 99.9% | – | – | CC50 (in vitro [5]; CC50 when tested alone): 8 to 17 µM; cytotoxicity of combination with RDV (HeLa cells): Enhanced cytotoxicity
6 | CO/N=C(\C(=O)N[C@@H]1C(=O)N2C(C(=O)O)=C(CSc3nc(=O)c(=O)[nH]n3C)CS[C@H]12)c1csc(N)n1 [Ceftriaxone, ceftriaxone disodium salt hemi(heptahydrate)] | 291000 [7] ng/mL | Not antagonistic | – | – | > 2.5 µM | > 2.5 µM | CC50 (SUDV assay) (HeLa cells; human): 20.9 ± 10.1 µM
7 | O=C(O)c1cn(C2CC2)c2cc(N3CCNCC3)c(F)cc2c1=O [Ciprofloxacin] | – | Enhanced for SUDV | – | – | – | – | –
8 | CN1C(=O)CN=C(c2ccccc2)c2cc(Cl)ccc21 [Diazepam] | – | No | minimal effect on RDV potency | – | – | – | –
9 | O=C1Nc2ccc(Cl)cc2[C@@](C#CC2CC2)(C(F)(F)F)O1 [Efavirenz] | 12900 [14] ng/mL | Not antagonistic | – | 99.5–99.75% | – | – | EC50 (MARV Ci67 [6]): 19.8 ± 0.1 µM; CC50 at 48 h (in vitro [5]): 15.1 ± 4.1 µM; CC50 (in vitro [5]; CC50 (SUDV assay)): 20.7 ± 10.1 µM; CC50 (in vitro [5]; CC50 when tested alone): 14 to 28 µM; cytotoxicity of combination with RDV (HeLa cells): Enhanced cytotoxicity; EC50 (SUDV Boniface [4]): 2.24 ± 0.57 µM
10 | NC(=O)c1nc(F)c[nH]c1=O [Favipiravir, 6-fluoro-3-oxo-3,4-dihydropyrazine-2-carboxamide] | – | – | – | – | – | – | CC50 (in vitro [7]): > 750 µM; maximum fold reduction of favipiravir EC50 in combination with RDV (MARV Ci67 [8]): ≥ 4.8 fold; decrease of plasma median concentration on Day 4 [9]: ~ 50%; maximum fold reduction of favipiravir EC50 in combination with RDV (SUDV Boniface [10]): ≥ 21 fold
11 | N#C[C@@]1(c2ccc3c(N)ncnn23)O[C@H](CO)[C@@H](O)[C@H]1O [GS-441524] | – | – | – | – | – | – | EC50 (West Niles virus (WNV)): > 30 µM; EC50 (dengue virus-2 (DENV-2)): 9.46 µM; EC50 (yellow fever virus (YFV)): 11 µM; EC50 (HCV 1b replicon): 3.1 µM
12 | Nc1ccn([C@@H]2CS[C@H](CO)O2)c(=O)n1 [Lamivudine] | 2600 [15] ng/mL | No | minimal effect on RDV potency | <36% | > 2.5 µM | > 2.5 µM | –
13 | Cc1cccc(C)c1OCC(=O)N[C@@H](Cc1ccccc1)[C@@H](O)C[C@H](Cc1ccccc1)NC(=O)[C@H](C(C)C)N1CCCNC1=O [Lopinavir] | – | No for MARV; also recorded: Not antagonistic | – | >98% | > 2.5 µM | > 2.5 µM | EC50 (MARV Ci67 [6]): > 100 µM; CC50 at 48 h (in vitro [5]): > 100 µM; CC50 (in vitro [5]; CC50 (SUDV assay)): 34.1 ± 0.9 µM; EC50 (SUDV Boniface [4]): 2.32 ± 0.58 µM
14 | CCCCN(CCCC)CC(O)c1cc(Cl)cc2c1-c1ccc(Cl)cc1/C2=C/c1ccc(Cl)cc1 (stereo not drawn) [Lumefantrine] | 6300 [10] ng/mL | Not antagonistic | – | – | > 2.5 µM | > 2.5 µM | EC50 (MARV Ci67 [6]): 16.6 ± 7.3 µM; CC50 at 48 h (in vitro [5]): 37.3 ± 0.9 µM; CC50 (in vitro [5]; CC50 (SUDV assay)): 40 ± 1.2 µM; EC50 (SUDV Boniface [4]): 9.6 ± 0.52 µM
15 | Cc1ncc([N+](=O)[O-])n1CCO [Metronidazole] | 5100 [11] ng/mL | No | minimal effect on RDV potency | 20% | > 2.5 µM | > 2.5 µM | –
16 | COc1ccc2[nH]c([S+]([O-])Cc3ncc(C)c(OC)c3C)nc2c1 (stereo not drawn) [Omeprazole] | 598 [12] ng/mL | No | minimal effect on RDV potency | – | > 2.5 µM | > 2.5 µM | –
17 | Cc1nccn1CC1CCc2c(c3ccccc3n2C)C1=O (stereo not drawn) [Ondansetron, ondansetron hydrochloride dihydrate] | 106 [13] ng/mL | No | minimal effect on RDV potency | 73% | > 2.5 µM | > 2.5 µM | –
18 | [H]/N=C(\N/C(=N/[H])Nc1ccc(Cl)cc1)NC(C)C [Proguanil, Proguanil hydrochloride] | 918 [5] ng/mL | No | minimal effect on RDV potency | – | > 2.5 µM | > 2.5 µM | –
19 | CC(C)c1nc(CN(C)C(=O)N[C@H](C(=O)N[C@@H](Cc2ccccc2)C[C@H](O)[C@H](Cc2ccccc2)NC(=O)OCc2cncs2)C(C)C)cs1 [Ritonavir] | 1271 [17] ng/mL | No | minimal effect on RDV potency | – | – | – | –
20 | CC(C)OC(=O)OCOP(=O)(CO[C@H](C)Cn1cnc2c(N)ncnc21)OCOC(=O)OC(C)C [Tenofovir disoproxil fumarate] | 300 [18, 19] ng/mL | No | minimal effect on RDV potency | <1% | > 2.5 µM | > 2.5 µM | –
